{"source": "patent EP4316475A1", "about": "“MERKEL CELL ACTIVATOR, SYNAPTIC VESICLE ENHANCER, NEUROTRANSMITTER RELEASE ACCELERATOR, METHOD FOR ASSESSING NEUROTRANSMITTER RELEASE ACTIVITY OF MERKEL CELLS, AND METHOD FOR SCREENING FOR NEUROTRANSMITTER RELEASE ACCELERATOR FOR MERKEL CELLS” (Shiseido Company, Ltd., priority 2021, dated 2022)", "key": {"Merkel cells [1]": {"tested_on": "Merkel cells", "assay": "Piccolo expression in CK20-positive Merkel cells of cultured scalp samples (fluorescent immunohistochemical staining)", "format": "cell-based, Human", "conditions": "Sandalore 500 µM in medium from day 1, samples collected day 3, control 0.1% DMSO", "from_the_text": "Human scalp from the temporal and occipital regions was taken from healthy female subjects (47 to 60 years of age) that had received common cosmetic surgery, and used after obtaining informed consent and ethical approval (Muenster University).\nScalp samples including hair follicles were taken using a 6 mm punch from the occipital region (donors 1, 2, 3 and 4) or the temporal region (donor 5) of subjects: a person (donor 1), a person (donor 2), a person (donor 3), a person (donor 4) and a donor 5). The obtained samples were placed in 25 ng/ml NGF-added DMEM/F12 medium and cultured in a 5% CO2 humidified atmosphere at 37°C (day 0). […]\nThe primary antibodies used were anti-CK20 antibody (distributor: Progen, Product No.: Product No.: 61054) and anti-Piccolo antibody (distributor: Novus Biologicals (Tocris), Product No.: NBP1-90250), and the subsequent secondary antibodies used were Goat anti-Rabbit IgG (H+L) Cross-Adsorbed Secondary Antibody (distributor: Invitrogen, Product No.: A-11008) and Goat anti-Mouse IgG (H+L) Highly Cross-Adsorbed Secondary Antibody (distributor: Invitrogen, Product No.: A-11030), in combination with each of the primary antibodies, respectively. […] The number of CK20-positive cells expressing Piccolo in a specified region in a photograph taken under a fluorescent microscope were counted and shown in a graph (Fig. 4C)."}, "Merkel cells [2]": {"tested_on": "Merkel cells", "assay": "Neurotransmitter release by Merkel cells in fresh skin epidermis ex vivo (FFN206 fluorescent tracer live imaging)", "format": "cell-based, human", "conditions": "500 µM Sandalore/BSS solution circulated from 300 s to 600 s; control BSS solution alone", "description": "Fresh skin excised from the abdominal region of a healthy subject and a healthy subject, both having undergone cosmetic surgery, was used for experimentation within 5 days, after obtaining informed consent and ethical approval. The skin was exposed to 25 units/ml of a dispase-PBS solution for 15 minutes at 37°C to detach the epidermis.\nThe epidermis isolated from the fresh human skin was cultured for 30 minutes in a high-potassium extracellular solution (5 mM NaCl, 140 mM KCl, 10 mM HEPES (pH 7.4), 10 mM D-glucose, 2 mM MgCl2 and 2 mM CaCl2) containing FFN206 (Tocris, Catalog No. 5043), and the fluorescent-labeled neurotransmitter FFN206 was specifically taken up into the Merkel cells.\nBSS (Balanced salt solution) solution (140 mM NaCl, 5 mM KCl, 10 mM HEPES (pH 7.4), 10 mM D-glucose, 2 mM MgCl2 and 2 mM CaCl2) was circulated for the first 5 minutes, as baseline. After 5 minutes (300 s) until the end of observation (600 s), circulation was with 500 µM Sandalore (Givaudan)/BSS solution (A). […]\nThe cell response was evaluated based on the brightness value of FFN206, using cellSens (Olympus) and MATLAB (Mathworks). […] The change in brightness value of the baseline in each ROI was determined by nonlinear approximation, and the brightness value with the effect of discoloration eliminated was determined based on the approximation results for baseline. […]"}}, "note": "Entries after “also recorded” stand apart in the source; their conditions may differ."}
{"smiles": "CC1=CCC(CCC(C)C(C)O)C1(C)C", "note": "(centres unmarked) [Sandalore, 3-methyl-5-(2,2,3-trimethyl-cyclopenta-3-en-1-yl)-pentan-2-ol]", "values": [{"measurement": "number of CK20-positive cells expressing Piccolo in a specified region", "setting": "Merkel cells [1]", "result": "increased the number of Merkel cells expressing Piccolo"}, {"measurement": "fluorescent brightness value of Merkel cells (FFN206 signal)", "setting": "Merkel cells [2]", "result": "the fluorescent brightness value decreased; also recorded: the brightness value continued to decrease beyond the reaction line calculated from baseline"}]}
